Source: patent US20040242502A1, “Semi-synthetic saponin analogs with carrier and immune stimulatory activities for DNA and RNA vaccines” (Galenica Pharmaceuticals, Inc., priority 2003, published 2004)
Several values for one entry are separate records, joined by “and”; a condition that tells them apart may be missing. Identical values can stand only once.

System: Female Balb/c mice
Test: Immunization of Balb/c mice with OVA cDNA in the presence and absence of DMPS; anti-OVA antibody ELISA of serum
Assay type: in vivo
Details: anti-OVA ELISA on OVA coated plates, serum dilution 1:100, bled 14 days after last immunization, i.m. days 1 and 15, 20 OVA DNA alone or +50 DMPS
Experimental: Female Balb/c mice were immunized intramuscularly at days 1 and 15 with 0.2 mL of phosphate buffered saline solution (PBS) containing 20 μg of chicken OVA cDNA alone or with 50 μg of 3-dimethylamino-1-propylamino-DS-saponin (DMPS). The complete OVA cDNA was sub-cloned into a mammalian expression vector containing the human β-actin promotor and the neomycin resistant gene, under control of the SV40 promotor, to yield pAC-Neo-OVA. Negative control animals received PBS only. Animals were bled 14 days after the last immunization. Total IgG and IgG2a were determined by ELISA using OVA coated plates and a serum dilution of 1:100. The serum dilution was incubated at 37° C. for 1 hour and the plates were washed. After incubation with anti IgG-HRP conjugate, the plates were washed and developed with a TMB substrate for 15 minutes at room temperature, stopped by the addition of 0.18 M sulfuric acid, and read at 450 nm.

## 3-dimethylamino-1-propylamino-DS-saponin [DMPS]
Average of 5 mice ± spread
  Absorbance (450 nm), Average: 0.188 ± 0.093
Mice 1-5
  Absorbance (450 nm), individual mice: 0.400 and 0.210 and 0.092 and 0.140 and 0.100
